Test results reported in PMC5118696, “Identification of inhibitors that dually target the new permeability pathway and dihydroorotate dehydrogenase in the blood stage of Plasmodium falciparum” (Scientific Reports, 2016).
Like-named read-outs stand apart in the source and are kept apart here.

Tests used:
[1] = test system: Hyp1-NLuc Plasmodium falciparum-infected erythrocytes (new permeability pathway, NPP); assay: microbe, parasite or virus in culture; settings: Erythrocyte, 0.33 h, read-out: Mean RLU at 28 min (As % of DMSO control)
[2] = test system: Hyp1-NLuc Plasmodium falciparum-infected erythrocytes (new permeability pathway, NPP); assay: microbe, parasite or virus in culture; settings: Erythrocyte, 0.33 h, read-out: % of control remaining

| SMILES | activity at 2 µM [1] [%] | activity at 2 µM [2] [%] |
| --- | --- | --- |
| CCOc1cccc2sc(N(Cc3cccnc3)C(=O)C3CCCCC3)nc12 [MMV001230] | 103 | 113 |
| Cc1ccc(CN2CCC(C(=O)Nc3ccc(-c4cc5ccccc5[nH]4)cc3)CC2)o1 [MMV666071] | 94.8 | 101 |
| Cc1cc(C)c2c(c1)OCN(Cc1ccccc1Cl)C2 [MMV006558] | 108 | 108 |
| CC(C)(C)c1ccc(O)c(CNC2CCCCC2)c1 [MMV665785] | 103 | 104 |
| CCOC(=O)c1c(C)n(-c2ccc(Cl)cc2)c2ccc(OC(=O)C=Cc3ccccc3)cc12 [MMV666600] | 101 | 100 |
| COc1ccc(C(=O)NC(c2ccc(Cl)cc2Cl)c2cc(Cl)c3cccnc3c2O)cc1 (centres unmarked) [MMV666054] | 101 | 106 |
| CC(C)(C)c1ccc(C(=O)Nc2nc3ccccc3s2)cc1 [MMV142383] | 110 | 121 |
| CCN(CC)c1ccc(NC(=O)c2cccs2)cc1 [MMV009060] | 103 | 111 |
| Cc1ccc(N2C3c4ccccc4N(S(=O)(=O)c4ccc(C)cc4)C2c2ccccc2N3S(=O)(=O)c2ccc(C)cc2)cc1 [MMV007160] | 103 | 103 |
| Oc1ccc(-c2nc(-c3ccc4oc5ccc(-c6[nH]c(-c7ccc(O)cc7)nc6-c6ccccc6)cc5c4c3)c(-c3ccccc3)[nH]2)cc1 [MMV000753] | 88.1 | 89.5 |
| COC(=O)c1ccc(Cl)c2c1C1C=CCC1C(c1cccc3ccccc13)N2 (centres unmarked) [MMV667489] | 103 | 100 |
| CCN(CC)CCCNc1ccnc2cc3ccccc3cc12 [MMV665783] | 101 | 106 |
| COc1cc2c3cc1Oc1c(OC)c(OC)cc4c1C(Cc1ccc(O)c(c1)Oc1ccc(cc1)CC3N(C)CC2)N(C)CC4 (centres unmarked) [MMV007474] | 104 | 103 |
| O=C(CSc1ccc2nnc(-c3cccc(F)c3)n2n1)Nc1ccc2c(c1)OCO2 [MMV665918] | 106 | 121 |
| Cc1ccc(Nc2nc(-c3ccccn3)cs2)cc1 [MMV007907] | 106 | 103 |
| CCOc1ccc(-n2cc(-c3ccccc3)c3c(SCc4cc(C)ccc4C)ncnc32)cc1 [MMV085471] | 104 | 118 |
| CCOC(=O)c1cnc2c(C)cccc2c1Nc1ccc(C(C)=O)cc1 [MMV006250] | 95.8 | 103 |

| SMILES | activity at 2 µM [1] [%] | activity at 2 µM [2] [%] |
| --- | --- | --- |
| O=C(CCl)NCCOc1ccc(Cl)cc1Cl [MMV665927] | 98.1 | 86.2 |
| CCN(CC)CCCNc1nc(-c2ccc(Cl)cc2)nc2ccccc12 [MMV665961] | 103 | 101 |
| COc1ccc(Nc2nc(NCc3ccccc3)c3ccccc3n2)cc1 [MMV000963] | 103 | 106 |
| COc1ccc(-c2nc3cc(Cc4ccc5[nH]c(-c6ccc(OC)cc6)nc5c4)ccc3[nH]2)cc1 [MMV007384] | 82.1 | 45.6 |
| COc1ccc(N2CCN(C(CNC(=O)CC(C)(C)C)c3ccc4c(c3)OCO4)CC2)cc1 (centres unmarked) [MMV665908] | 92.5 | 97.1 |
| O=C(NC1CCN(Cc2ccccc2)CC1)c1cc(C(=O)NC2CCN(Cc3ccccc3)CC2)cc(C(=O)NC2CCN(Cc3ccccc3)CC2)c1 [MMV019881] | 110 | 111 |
| O=C(Nc1ccc(-c2nc3cc(NC(=O)c4ccc(Cl)cc4)ccc3[nH]2)cc1)c1ccc(Cl)cc1 [MMV006962] | 101 | 99.7 |
| COc1ccc(C2C(C(=O)Nc3cccc(OC)c3)c3ccccc3C(=O)N2C2CCCCC2)cc1 (centres unmarked) [MMV008455] | 107 | 115 |
| CCCCCCc1cc(O)c2c3c(c(=O)oc2c1)CCC(C)C3 (centres unmarked) [MMV665987] | 89.8 | 94.7 |
| OC(CNCC1CCCO1)Cn1c2ccc(Cl)cc2c2cc(Cl)ccc21 (centres unmarked) [MMV396736] | 116 | 112 |
| COc1ccc(Br)cc1C1Nc2ccc3ccccc3c2C2=C1C(=O)CC(c1ccccc1)C2 (centres unmarked) [MMV020885] | 100 | 97.2 |
| CCc1ccc(Nc2cc(C)nc3nc(C)nn23)cc1 [MMV007374] | 113 | 114 |
| CCOC(=O)c1cnc2c(CC)cccc2c1O [MMV498479] | 103 | 107 |
| COc1ccc(C(=O)Nc2ccc3nc(N4CCCCC4)cc(C)c3c2)cc1OC [MMV019758] | 100 | 108 |
| CCOC(=O)C1=C(C)N=c2sc(=Cc3ccccc3O)c(=O)n2C1c1ccc(OC)c2ccccc12 (centres unmarked) [MMV666604] | 110 | 117 |
| CCOC(=O)c1cnc2ccc(OC)cc2c1NCc1ccccc1 [MMV665813] | 115 | 114 |
| O=C(Nc1ccc(-c2nc3ccccc3[nH]2)cc1)c1ccc(Cl)c(Cl)c1 [MMV665840] | 109 | 107 |
